Data on 3 compounds can be found in patent US20110020517A1, “TASTE MODIFYING PRODUCT” (priority 2008, published 2011).

Assay [1] is described as follows: Evaluation for umami/kokumi taste and mouthfeel by a team of 8 trained panelists, in 0.3% aqueous NaCl solution. The following applies: 10 ppm in 0.3% aqueous NaCl solution. On the procedure:
Liquid 2-(3-phenylpropyl)pyridine was obtained from R.C. Treatt & Co Ltd, UK (reference SA362100/2). It was then diluted into propylene glycol solvent to provide a 10% solution of the 2-(3-phenylpropyl)pyridine, the resulting solution then being added to a 0.3% aqueous NaCl solution to provide a concentration of 2-(3-phenylpropyl)pyridine of 10 ppm.
The sample was evaluated for umami/kokumi taste and mouthfeel by a team of 8 trained panelists.

The conditions of assay [2]: prior art, U.S. Pat. No. 5,298,486 column 2 lines 24 to 33; cited from earlier work.

As to `c1ccc(CCCc2ccccn2)cc1` [2-(3-phenylpropyl)pyridine], in assay [1], the “Description: Mouthfeel” value is on record as “Mouthfeel: sweet,” and the “Description: Taste” value is listed as “Taste: brown, fatty,”. In assay [1] (scale of 0 to 10, 0 = no Kokumi/Umami effect, 10 = very intense effect), this compound yielded a Kokumi/Umami taste intensity of 7.

`CCCCCCCc1cccnc1` [3-heptylpyridine]: the flavor note result in assay [2] is “fatty, metallic and fishy”.

Consider `CCCCCCc1cccnc1` [3-hexylpyridine], for which the flavor note entry in assay [2] is recorded as “fruity”.
